Measured values published in publication PMC4394430, “Licochalcone A, a Polyphenol Present in Licorice, Suppresses UV-Induced COX-2 Expression by Targeting PI3K, MEK1, and B-Raf” (International Journal of Molecular Sciences, 2015).

Experiments:
B-Raf [1] = molecular target: T1, B-Raf (Homo sapiens, UniProt P15056); conditions: 10 and 100 uM ATP; 4 C; competitive with LicoA
T1 construct: gene BRAF

MEK1 = molecular target: T2, MEK1 (Homo sapiens, UniProt Q02750); experiment: LicoA-Sepharose 4B pull-down, immunoblot; format: binding; conditions: pH 7.5; 4 C; immobilised LicoA; not blocked by ATP (non-competitive)
T2 construct: gene MAP2K1

B-Raf [2] = molecular target: T1, B-Raf; experiment: […] kinase assay, inactive MEK1 and MBP peptide; format: biochemical; conditions: 5 and 10 uM LicoA; pH 7.5; 30 C; coupled readout; ATP-competitive
B-Raf [3] = molecular target: T1, B-Raf; experiment: LicoA-Sepharose 4B pull-down, immunoblot; format: binding; conditions: pH 7.5; 4 C; immobilised LicoA; blocked by ATP (ATP-competitive)

T1 sequence (P15056 2-766): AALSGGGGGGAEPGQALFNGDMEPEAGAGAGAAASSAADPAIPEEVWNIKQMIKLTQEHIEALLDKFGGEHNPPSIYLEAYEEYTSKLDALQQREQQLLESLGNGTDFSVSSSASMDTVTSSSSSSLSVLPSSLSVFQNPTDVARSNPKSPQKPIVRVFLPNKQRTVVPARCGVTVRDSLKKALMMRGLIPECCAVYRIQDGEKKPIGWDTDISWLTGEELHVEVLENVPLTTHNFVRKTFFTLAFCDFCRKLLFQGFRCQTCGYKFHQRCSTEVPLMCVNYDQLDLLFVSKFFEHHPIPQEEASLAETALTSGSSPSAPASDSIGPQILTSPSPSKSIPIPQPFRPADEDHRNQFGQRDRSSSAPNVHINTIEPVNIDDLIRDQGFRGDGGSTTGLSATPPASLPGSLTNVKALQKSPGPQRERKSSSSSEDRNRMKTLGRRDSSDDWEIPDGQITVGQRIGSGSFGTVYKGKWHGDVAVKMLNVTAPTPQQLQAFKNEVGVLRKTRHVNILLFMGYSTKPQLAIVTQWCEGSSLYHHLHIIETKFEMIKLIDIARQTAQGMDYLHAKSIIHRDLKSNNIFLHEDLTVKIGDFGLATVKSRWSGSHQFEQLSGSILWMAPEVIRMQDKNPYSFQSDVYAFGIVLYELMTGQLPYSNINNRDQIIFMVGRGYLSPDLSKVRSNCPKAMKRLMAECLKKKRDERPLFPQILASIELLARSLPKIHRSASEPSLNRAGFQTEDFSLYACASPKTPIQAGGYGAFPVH
T2 sequence (Q02750 whole entry): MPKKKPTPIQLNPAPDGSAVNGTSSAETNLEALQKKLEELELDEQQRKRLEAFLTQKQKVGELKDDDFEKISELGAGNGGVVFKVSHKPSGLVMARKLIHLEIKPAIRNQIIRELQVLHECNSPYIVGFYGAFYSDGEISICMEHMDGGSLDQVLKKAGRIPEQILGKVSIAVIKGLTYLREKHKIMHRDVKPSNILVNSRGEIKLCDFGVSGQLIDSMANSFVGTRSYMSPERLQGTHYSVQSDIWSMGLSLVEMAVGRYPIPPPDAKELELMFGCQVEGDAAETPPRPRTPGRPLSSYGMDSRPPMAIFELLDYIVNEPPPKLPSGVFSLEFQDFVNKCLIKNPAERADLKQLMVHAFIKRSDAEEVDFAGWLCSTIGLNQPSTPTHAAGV

Row | Compound | ATP competition with LicoA-Sepharose 4B pull-down (B-Raf [1]) | LicoA-Sepharose 4B pull-down, immunoblot (MEK1) | % inhibition (B-Raf [2]) | LicoA-Sepharose 4B pull-down, immunoblot (B-Raf [3])
1 | Nc1ncnc2c1ncn2[C@@H]1O[C@H](COP(=O)(O)OP(=O)(O)OP(=O)(O)O)[C@@H](O)[C@H]1O [ATP] | ATP treatment blocked the binding ability of LicoA with PI3K (Figure 4B) and B-Raf (Figure 4F) | – | – | –
2 | C=CC(C)(C)c1cc(/C=C/C(=O)c2ccc(O)cc2)c(OC)cc1O [LicoA, Licochalcone A] | – | LicoA binds with MEK1 in an ATP non-competitive manner | strongly blocked B-Raf (Figure 3C) activity in a dose-dependent manner | LicoA binds with PI3K and B-Raf in competition with ATP
